According to ChEMBL document CHEMBL1201862, “PubChem BioAssay data set” (2004):
Calls of active or inactive are those of the source.

Legend:
[1] = molecular target: Intestinal-type alkaline phosphatase (Homo sapiens, UniProt P09923); test: Dose Response confirmation of uHTS hits from a small molecule inhibitors of human intestinal alkaline phosphatase via a luminescent assay. [Related pubchem assays (depositor defined):AID2544, AID2574]; assay type: functional
[2] = molecular target: Mothers against decapentaplegic homolog 3 (Homo sapiens, UniProt P84022); test: inhibitors of SMAD-driven TGF-beta signaling – dose response (AID 715); assay type: functional
[3] = molecular target: T1, Sentrin-specific protease 8 (Homo sapiens, UniProt Q96LD8); assay type: functional
T1 sequence (Q96LD8 whole entry): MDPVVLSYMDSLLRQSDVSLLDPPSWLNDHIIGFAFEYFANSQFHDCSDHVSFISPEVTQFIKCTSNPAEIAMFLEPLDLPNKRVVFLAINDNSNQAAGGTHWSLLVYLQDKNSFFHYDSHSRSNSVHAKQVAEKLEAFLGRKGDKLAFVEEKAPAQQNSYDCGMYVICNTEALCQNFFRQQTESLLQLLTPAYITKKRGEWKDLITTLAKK

[4] = molecular target: T2, Histone-lysine N-methyltransferase NSD2 (Homo sapiens, UniProt O96028); assay type: biochemical
T2 sequence (O96028 whole entry): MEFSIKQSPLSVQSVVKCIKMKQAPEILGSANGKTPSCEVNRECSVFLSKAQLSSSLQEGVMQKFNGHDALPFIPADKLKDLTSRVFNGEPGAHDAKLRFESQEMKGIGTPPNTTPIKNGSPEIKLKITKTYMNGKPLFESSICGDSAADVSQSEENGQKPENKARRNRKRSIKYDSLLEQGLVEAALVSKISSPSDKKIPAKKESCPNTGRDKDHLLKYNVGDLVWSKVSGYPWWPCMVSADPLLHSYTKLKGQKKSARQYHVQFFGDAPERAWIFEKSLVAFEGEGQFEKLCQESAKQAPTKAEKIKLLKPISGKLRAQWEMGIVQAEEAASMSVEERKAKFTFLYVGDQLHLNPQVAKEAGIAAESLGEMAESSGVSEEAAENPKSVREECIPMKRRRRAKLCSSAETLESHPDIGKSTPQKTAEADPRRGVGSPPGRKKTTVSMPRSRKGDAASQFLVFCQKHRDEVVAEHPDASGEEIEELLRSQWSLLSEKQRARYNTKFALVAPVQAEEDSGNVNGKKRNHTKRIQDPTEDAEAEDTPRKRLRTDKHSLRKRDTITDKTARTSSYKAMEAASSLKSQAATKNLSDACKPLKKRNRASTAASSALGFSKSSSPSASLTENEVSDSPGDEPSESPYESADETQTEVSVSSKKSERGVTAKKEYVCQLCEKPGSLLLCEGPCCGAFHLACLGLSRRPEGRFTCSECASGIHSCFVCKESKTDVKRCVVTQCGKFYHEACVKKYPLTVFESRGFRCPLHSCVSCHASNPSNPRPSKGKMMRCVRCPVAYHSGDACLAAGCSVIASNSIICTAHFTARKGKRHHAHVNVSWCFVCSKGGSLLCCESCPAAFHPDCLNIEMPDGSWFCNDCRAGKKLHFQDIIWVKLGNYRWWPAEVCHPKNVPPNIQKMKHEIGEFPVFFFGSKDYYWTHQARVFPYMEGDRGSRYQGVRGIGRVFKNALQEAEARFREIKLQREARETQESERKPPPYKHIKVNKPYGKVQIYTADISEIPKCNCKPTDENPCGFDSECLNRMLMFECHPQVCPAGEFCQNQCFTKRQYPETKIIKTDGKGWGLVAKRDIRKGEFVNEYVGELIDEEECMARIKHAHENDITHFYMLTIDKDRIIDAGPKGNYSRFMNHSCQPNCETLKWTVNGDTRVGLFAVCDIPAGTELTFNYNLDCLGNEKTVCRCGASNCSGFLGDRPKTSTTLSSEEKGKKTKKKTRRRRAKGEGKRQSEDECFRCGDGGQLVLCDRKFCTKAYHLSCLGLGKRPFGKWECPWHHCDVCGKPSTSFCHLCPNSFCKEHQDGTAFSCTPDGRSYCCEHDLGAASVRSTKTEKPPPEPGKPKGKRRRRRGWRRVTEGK

[5] = molecular target: T1, Sentrin-specific protease 8; assay type: functional; remark: listed apart in the source
Caspase-3 = molecular target: T3, Caspase-3 (Homo sapiens, UniProt P42574); test: Dose-response confirmation of uHTS inhibitor hits of Sentrin-Specific Protease 8 in a Caspase-3 Fluorescence assay.; assay type: functional
T3 sequence (P42574 whole entry): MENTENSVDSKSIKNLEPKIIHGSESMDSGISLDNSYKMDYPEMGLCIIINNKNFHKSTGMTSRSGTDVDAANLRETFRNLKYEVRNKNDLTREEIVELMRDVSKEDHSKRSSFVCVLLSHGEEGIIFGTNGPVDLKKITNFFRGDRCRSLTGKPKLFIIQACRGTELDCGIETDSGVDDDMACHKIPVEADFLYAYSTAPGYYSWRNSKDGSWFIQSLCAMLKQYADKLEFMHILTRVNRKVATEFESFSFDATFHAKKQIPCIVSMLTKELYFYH

[6] = viability loss in THP-1 monocytes – THP-1 cells, cytotoxicity control for Vif-APOBEC3G degradation inhibitor project, dose response (AID 1117359); assay type: functional; conditions: THP-1

Sequence of Mothers against decapentaplegic homolog 3 (P84022 whole entry): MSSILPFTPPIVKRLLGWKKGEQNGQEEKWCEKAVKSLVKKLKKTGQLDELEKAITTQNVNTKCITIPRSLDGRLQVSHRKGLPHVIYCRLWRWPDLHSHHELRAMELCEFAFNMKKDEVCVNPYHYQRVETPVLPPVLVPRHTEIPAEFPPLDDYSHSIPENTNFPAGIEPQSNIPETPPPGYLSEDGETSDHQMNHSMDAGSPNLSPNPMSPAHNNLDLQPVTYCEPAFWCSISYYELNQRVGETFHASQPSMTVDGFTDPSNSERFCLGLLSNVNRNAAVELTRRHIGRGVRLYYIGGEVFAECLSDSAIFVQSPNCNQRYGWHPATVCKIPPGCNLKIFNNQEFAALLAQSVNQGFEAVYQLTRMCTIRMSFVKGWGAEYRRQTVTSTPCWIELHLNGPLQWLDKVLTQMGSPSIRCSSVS
Sequence of Intestinal-type alkaline phosphatase (P09923 whole entry): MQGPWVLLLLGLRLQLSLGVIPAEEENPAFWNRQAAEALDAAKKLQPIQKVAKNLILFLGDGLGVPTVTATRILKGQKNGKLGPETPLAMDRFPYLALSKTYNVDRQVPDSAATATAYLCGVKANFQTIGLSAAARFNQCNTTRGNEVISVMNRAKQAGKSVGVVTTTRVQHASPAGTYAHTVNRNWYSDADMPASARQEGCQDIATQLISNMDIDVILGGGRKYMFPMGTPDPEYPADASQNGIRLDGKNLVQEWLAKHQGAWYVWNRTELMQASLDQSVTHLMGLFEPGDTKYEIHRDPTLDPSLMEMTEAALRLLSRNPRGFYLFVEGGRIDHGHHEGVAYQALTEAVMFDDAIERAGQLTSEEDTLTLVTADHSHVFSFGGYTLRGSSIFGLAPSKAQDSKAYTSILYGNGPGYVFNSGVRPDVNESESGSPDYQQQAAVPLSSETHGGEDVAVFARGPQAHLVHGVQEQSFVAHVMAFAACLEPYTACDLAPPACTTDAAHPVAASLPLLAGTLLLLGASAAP

Structure (SMILES): Nc1c(N2CCCC2)cc(Cl)c2nonc12
- IC50 [1]: > 100 µM (inactive)
- IC50 [2]: 18.3 µM (active)

Structure (SMILES): O=C(NNc1cc(N2CCOCC2)nc(N2CCOCC2)n1)c1ccc([N+](=O)[O-])cc1
- IC50 [3]: 3.2 µM (active)
- AC50 [4]: 2.56 µM (active)
- IC50 [5]: 2.86 µM (active)
- IC50 (Caspase-3): 20.9 µM (active)

Structure (SMILES): Oc1ccc(/N=C/c2ccc(OCc3ccccc3)cc2)cc1
- CC50 [6]: > 40 µM (active)
